These results are taken from patent US9833497B2, “Human originated EGF domain proteins and use of the same” (CHENGDU SOURCEBIO LIMITED-LIABILITY COMPANY, priority 2013, dated 2017).

What all share (format): cell-based
Experiment [1] deals with Klebsiella pneumonia. In words: MIC against Gram-negative bacteria: Klebsiella pneumonia. As to conditions: for MIC: K. pneumonia, 10 h cultivation at 37° C. The procedure, abridged:
(§1)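 Inocula prepared by growing LB cultures at 37° C to 0.5 McFarland, centrifuging at 4000×g, and resuspending in fresh medium. Final density 5×10^5 CFU/mL per well with two-fold dilutions of purified EGF domain protein; shaking incubation at 37° C.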

In experiment [2] the test system is Moraxella catarrhalis. Nature of the experiment: MIC against Gram-negative bacteria: Moraxella catarrhalis. To be noted: for MIC: M. catarrhalis, 10 h cultivation at 37° C. The procedure, abridged: as §1
In experiment [3] the test system is Aeromonas hydrophila. Nature of the experiment: MIC against Gram-negative bacteria: Aeromonas hydrophila. To be noted: for MIC: A. hydrophila, 10 h cultivation at 37° C. The procedure, abridged:
as §1

Experiment [4] deals with Pseudomonas aeruginosa. In words: MIC against Gram-negative bacteria: Pseudomonas aeruginosa. As to conditions: for MIC: P. aeruginosa, 10 h cultivation at 37° C. The essentials: as §1
For experiment [5], the system named is Enterobacter cloacae. In words: MIC against Gram-negative bacteria: Enterobacter cloacae. As to conditions: for MIC: E. cloacae, 10 h cultivation at 37° C. The essentials: as §1
In experiment [6] the test system is Proteus mirabilis. Nature of the experiment: MIC against Gram-negative bacteria: Proteus mirabilis. To be noted: for MIC: P. mirabilis, 10 h cultivation at 37° C. The essentials: as §1
In experiment [7] the test system is E. coli BL21. Nature of the experiment: MIC against Gram-negative bacteria: E. coli BL21. To be noted: for MIC: 10 h cultivation at 37° C. The essentials:
as §1

The subject of experiment [8] is Citrobacter diversus. In words: MIC against Gram-negative bacteria: Citrobacter diversus. To be noted: for MIC: C. diversus, 10 h cultivation at 37° C. The procedure, abridged: as §1
Experiment [9] concerns Serratia marcescens. In words: MIC against Gram-negative bacteria: Serratia marcescens. To be noted: for MIC: S. marcescens, 10 h cultivation at 37° C. The procedure, abridged:
as §1

Experiment [10] concerns E. coli DH5α. Nature of the experiment: Antibacterial activity: MIC and growth curve against E. coli DH5α in 96-well plate. As to conditions: minimal inhibitory concentration against E. coli DH5α; 96-well plate, 5×10^5 CFU/mL, 37° C., judged after 8 h. The procedure, abridged: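 Log-phase bacteria (OD600 ~0.5) resuspended in LB at 5×10^5 CFU/mL, exposed to recombinant protein at 50, 25, 12.5 μg/mL final in triplicate, 37 °C shaking at 175 rpm. OD600 read every 30 min; MIC is lowest concentration showing no growth.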

Experiment [11] relates to Proteus vulgaris. In words: MIC against Gram-negative bacteria: Proteus vulgaris. As to conditions: for MIC: P. vulgaris, 10 h cultivation at 37° C. The essentials: as §1
[12] abbreviates: 96-well plate, 5×10^5 CFU/mL, 37° C., 10 h.

In the case of “PRT449 (FLCRCHQGYELHRDGFSCSDIDE; listed as Homo sapiens)”, the “MIC against K. pneumonia” value in [1] (setting [12]) was 12.5 mg/L. Further, the “MIC against M. catarrhalis” value in experiment [2] (setting [12]) was found to be 25 mg/L. In [3] (setting [12]), the “MIC against A. hydrophila” value stood at 25 mg/L. Further, the “MIC against P. aeruginosa” value in [4] (setting [12]) amounted to 50 mg/L. Also, the “MIC against E. cloacae” value in experiment [5] (setting [12]) amounted to 50 mg/L. The “MIC against P. mirabilis” value in experiment [6] (setting [12]) was determined as 50 mg/L. The “MIC against E. coli BL21” value in experiment [7] (setting [12]) stood at 12.5 mg/L. Further, in experiment [8] (setting [12]), the “MIC against C. diversus” value amounted to 12.5 mg/L. The “MIC against S. marcescens” value in experiment [9] (setting [12]) stood at 50 mg/L. Also, the minimum inhibitory concentration (MIC) (usually the lowest concentration that inhibits growth of the organism) in experiment [10] stood at 50 mg/L. Further, the “MIC against P. vulgaris” value in experiment [11] (setting [12]) worked out at 12.5 mg/L.

In the case of “PRT922 (LQCRDGYEPCVNEGMCVTYHNGTGYCKCPEGFLGEYCQ; listed as Homo sapiens)”, the MIC in experiment [1] came out at 12.5 mg/L; in [2], 25 mg/L; in [3], 25 mg/L; in [4], 12.5 mg/L; in [5], 25 mg/L; in [6] it was 50 mg/L. The MIC in [7] (E. coli BL21) stood at 25 mg/L; in experiment [8], 25 mg/L; in experiment [9], 12.5 mg/L; in experiment [10] it was 12.5 mg/L; in [11], 25 mg/L.

Consider “PRT1322 (PIDPCRAGNGGCHGLATCRAVGGGQRVCTCPPGFGGDGFS; listed as Homo sapiens)”, for which the “MIC against K. pneumonia” value in [1] (Klebsiella pneumonia, 96-well plate, 5×10^5 CFU/mL, 37° C., 10 h) amounted to 25 mg/L. In addition, in [2] (Moraxella catarrhalis, 96-well plate, 5×10^5 CFU/mL, 37° C., 10 h), the “MIC against M. catarrhalis” value came out at 12.5 mg/L. Moreover, in experiment [3] (Aeromonas hydrophila, 96-well plate, 5×10^5 CFU/mL, 37° C., 10 h), the “MIC against A. hydrophila” value was 12.5 mg/L. Besides, in [4] (Pseudomonas aeruginosa, 96-well plate, 5×10^5 CFU/mL, 37° C., 10 h), the “MIC against P. aeruginosa” value turned out to be 12.5 mg/L. For the same substance, the “MIC against E. cloacae” value in experiment [5] (Enterobacter cloacae, 96-well plate, 5×10^5 CFU/mL, 37° C., 10 h) was found to be 50 mg/L. The “MIC against P. mirabilis” value in [6] (Proteus mirabilis, 96-well plate, 5×10^5 CFU/mL, 37° C., 10 h) was found to be 12.5 mg/L. In addition, the “MIC against E. coli BL21” value in experiment [7] (E. coli BL21, 96-well plate, 5×10^5 CFU/mL, 37° C., 10 h) amounted to 25 mg/L. Also, in experiment [8] (Citrobacter diversus, 96-well plate, 5×10^5 CFU/mL, 37° C., 10 h), the “MIC against C. diversus” value was 50 mg/L. For the same substance, in experiment [9] (Serratia marcescens, 96-well plate, 5×10^5 CFU/mL, 37° C., 10 h), the “MIC against S. marcescens” value is 12.5 mg/L. The substance also had a minimal inhibitory concentration (MIC) in experiment [10] of 12.5 mg/L. Also, the “MIC against P. vulgaris” value in [11] (Proteus vulgaris, 96-well plate, 5×10^5 CFU/mL, 37° C., 10 h) stood at 25 mg/L.

As to “PRT440 (DVNECRQNVCRPDQHCKNTRGGYKCIDLCPNGMTKAENGTCI; listed as Homo sapiens)”, the MIC in [1] (5×10^5 CFU/mL) came out at 12.5 mg/L; in experiment [2] (5×10^5 CFU/mL), 12.5 mg/L; in experiment [3] (5×10^5 CFU/mL) it was 12.5 mg/L; in [4] (5×10^5 CFU/mL), 50 mg/L; in experiment [5] (5×10^5 CFU/mL), 50 mg/L; in experiment [6] (5×10^5 CFU/mL) it was 25 mg/L. Moreover, the minimal inhibitory concentration (MIC) in experiment [7] (E. coli BL21, 5×10^5 CFU/mL) was 12.5 mg/L; in experiment [8] (5×10^5 CFU/mL), 50 mg/L; in [9] (5×10^5 CFU/mL), 25 mg/L; in experiment [10], 50 mg/L; in experiment [11] (5×10^5 CFU/mL) it was 50 mg/L.

“PRT610 (CSCDPSGSIDECNIETGRCVCKDNVEGFNCERCKPGFFNLESSNPRGCTP; listed as Homo sapiens)”: the “MIC K. pneumonia” value in experiment [1] (setting [12]) came out at 25 mg/L. Moreover, the “MIC M. catarrhalis” value in [2] (setting [12]) stood at 12.5 mg/L. The “MIC A. hydrophila” value in experiment [3] (setting [12]) worked out at 12.5 mg/L. The “MIC P. aeruginosa” value in experiment [4] (setting [12]) was 12.5 mg/L. In addition, in experiment [5] (setting [12]), the “MIC E. cloacae” value worked out at 50 mg/L. In addition, in experiment [6] (setting [12]), the “MIC P. mirabilis” value was 50 mg/L. In addition, the “MIC E. coli BL21” value in experiment [7] (setting [12]) worked out at 25 mg/L. Further, in experiment [8] (setting [12]), the “MIC C. diversus” value worked out at 50 mg/L. For the same substance, the “MIC S. marcescens” value in [9] (setting [12]) stood at 50 mg/L. Besides, the minimal inhibitory concentration (MIC) in experiment [10] was found to be 50 mg/L. The “MIC P. vulgaris” value in experiment [11] (setting [12]) stood at 12.5 mg/L.
